Like-named read-outs stand apart in the source and are kept apart here.
Legend:
[1] = target: T1, insulin receptor B (Homo sapiens, UniProt P06213); test: Insulin receptor B autophosphorylation in transfected cells (Cisbio Phospho-IR beta Tyr1150/1151 kit); format: cell-based; details: for Relative HI activity: relative to human insulin; for Relative 0% HSA activity: 1.5% HSA relative to 0% HSA
T1 construct: expressed in transfected cells
Protocol: The phosphorylation level of insulin receptor B was detected by Cisbio's Phospho-IR beta (Tyr1150/1151) kit method to evaluate the biological activity of insulin. The cells were seeded into a 96-well plate overnight, and after the serum in the medium was removed, 40 μl of serum-free medium was added to culture for about 4 h. Then a dilution series of insulin derivatives were prepared with blank solution (0.6% casein, 0.06 mg/mL EDTA, 1×DPBS) and incubated with cells in the 96-well plate for 5 min in a CO2 incubator (37° C., 5% CO2). The liquid in the 96-well plate was poured off, 100 µL of a mixture of lysis buffer (2% Triton X-100, 150 mM NaCl, 50 mM HEPES, pH=7) and inhibitor (Blocking Reagent in the kit) was added to lyse the cells, then the plate was shaken at 350 rpm for 30 min. Relative activity (in percent (%)) was assessed by measuring insulin receptor phosphorylation levels in the supernatant after cell lysis and fitting a curve to the data using nonlinear regression in Graphpad Prism 5 software. Related assays were also used, in which the blank solution also contained 1.5% HSA to simulate physiological conditions. Changes in the phosphorylation levels of the insulin-activated insulin receptors of the invention were detected as an indirect reflection of the albumin binding activity.

[2] = tested on: normal C57BL/6 mice; test: Hypoglycemic effect, single subcutaneous administration to normal C57BL/6 mice; format: in vivo; design: blood glucose: unit not given here; details: for blood glucose / effective blood glucose control time / time after administration at which blood glucose reached the lowest level / time after administration at which blood glucose returned to normal: Degludec 200 nmol/Kg, others 1400 nmol/Kg; for blood glucose: Mean ± SEM, n = 6; for blood glucose compared with the control group: 1 h after single S.C. administration
Protocol: SPF grade C57BL/6 mice were reared in a suitable rearing box in a barrier environment, with a rearing temperature of 20-26° C., a humidity of 40-70%, a time between day and night of 12 h/12 h, and the mice had free access to standard food and autoclaved sterilization water. After a 3-day quarantine period and a 2-day acclimation period, random blood glucose was measured and mice were weighed. Mice were divided into 6 groups according to random blood glucose and body weight.
Single subcutaneous administration (S.C.) was used to administer the corresponding vehicle or drug. The control group was administered the vehicle PBS without fasting during the whole process, and the animals were allowed to eat and drink freely. Random blood glucose values of C57 mice were measured before administration and at 0.25, 0.5, 1, 2, 4, 6, 8, 10, 24, 48, 54, 72 and 96 hours after administration.
(§1) All raw data were entered into Excel files and expressed as Mean±SEM. Statistical analysis of data was performed using Graphpad Prism 7.0 software, one-way or two-way ANOVA comparison method, and P<0.05 was used as the criterion for significant differences.

[3] = tested on: STZ-induced type I diabetes mellitus (T1DM) C57BL/6 mice; test: Hypoglycemic effect, repeated administration (four times) to STZ-induced T1DM C57BL/6 mice (Example 5); format: in vivo; design: key to random blood glucose: random blood glucose in mmol/L, Mean±SEM; details: for random blood glucose: 1400 nmol/Kg S.C. four times
Protocol: SPF grade C57BL/6 mice were reared in a suitable rearing box in a barrier environment, with a rearing temperature of 20-26° C., a humidity of 40-70%, a time between day and night of 12 h/12 h, and the mice had free access to standard food and autoclaved sterilization water. After a 3-day quarantine period and a 2-day acclimation period, the mice were fasted for 12 h, and the mice were injected intraperitoneally with streptozotocin solution (STZ, 13 mg/mL, in citrate buffer) or citrate buffer at 130 mg/kg (control group). 3 Days and 7 days after administration of streptozotocin, random blood glucose and fasting blood glucose were detected, and the random blood glucose value above 25 mmol/L and fasting blood glucose value above 11.1 mmol/L were selected as T1DM model mice for follow-up experiments. On the day before administration, random blood glucose was monitored and mice were weighed. Mice were divided into 4 groups according to random blood glucose and body weight.
Subcutaneous administration (S.C.) was used to administer the corresponding vehicle or drug, once every 4-5 days, for a total of 4 administrations. During the experiment, the animals were allowed to eat and drink water freely. The random blood glucose before the first administration, and 0.25, 0.5, 1, 2, 4, 6, 8, 10, 24, 48, 72, and 96 h after administration were assessed, as well as the random blood glucose before the second, third and fourth administration, and 1, 2, 4, 6, 8, 24, 48, 72, 96 and 120 h after administration.
as §1

[4] = rat, in vivo, iv, 10 nmol/kg
[5] = rat, in vivo, sc, 10 nmol/kg
[6] = mouse, in vivo, sc, 10 nmol/kg
[7] = 0 h (before administration), single S.C.

T1 sequence (P06213 28-758 limits assumed): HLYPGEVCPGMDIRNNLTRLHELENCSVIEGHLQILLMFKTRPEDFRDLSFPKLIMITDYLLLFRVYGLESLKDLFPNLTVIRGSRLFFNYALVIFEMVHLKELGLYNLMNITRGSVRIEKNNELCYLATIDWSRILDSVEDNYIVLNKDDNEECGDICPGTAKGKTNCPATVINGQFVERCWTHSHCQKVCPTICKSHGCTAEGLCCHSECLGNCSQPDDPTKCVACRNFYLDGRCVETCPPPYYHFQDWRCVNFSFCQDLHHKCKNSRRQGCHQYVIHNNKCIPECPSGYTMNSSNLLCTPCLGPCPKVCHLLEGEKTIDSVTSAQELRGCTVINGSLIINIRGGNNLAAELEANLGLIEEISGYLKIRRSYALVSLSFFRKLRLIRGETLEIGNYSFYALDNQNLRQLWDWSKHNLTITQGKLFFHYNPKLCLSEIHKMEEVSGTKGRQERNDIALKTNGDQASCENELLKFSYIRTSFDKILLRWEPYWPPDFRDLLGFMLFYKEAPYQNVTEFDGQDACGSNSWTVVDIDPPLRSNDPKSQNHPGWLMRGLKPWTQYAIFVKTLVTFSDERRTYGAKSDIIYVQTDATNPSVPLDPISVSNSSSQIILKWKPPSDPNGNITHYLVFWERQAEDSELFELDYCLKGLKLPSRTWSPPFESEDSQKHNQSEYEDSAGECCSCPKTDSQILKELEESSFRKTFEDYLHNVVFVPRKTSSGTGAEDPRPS
T1 sequence (P06213 763-1382 partner limits assumed): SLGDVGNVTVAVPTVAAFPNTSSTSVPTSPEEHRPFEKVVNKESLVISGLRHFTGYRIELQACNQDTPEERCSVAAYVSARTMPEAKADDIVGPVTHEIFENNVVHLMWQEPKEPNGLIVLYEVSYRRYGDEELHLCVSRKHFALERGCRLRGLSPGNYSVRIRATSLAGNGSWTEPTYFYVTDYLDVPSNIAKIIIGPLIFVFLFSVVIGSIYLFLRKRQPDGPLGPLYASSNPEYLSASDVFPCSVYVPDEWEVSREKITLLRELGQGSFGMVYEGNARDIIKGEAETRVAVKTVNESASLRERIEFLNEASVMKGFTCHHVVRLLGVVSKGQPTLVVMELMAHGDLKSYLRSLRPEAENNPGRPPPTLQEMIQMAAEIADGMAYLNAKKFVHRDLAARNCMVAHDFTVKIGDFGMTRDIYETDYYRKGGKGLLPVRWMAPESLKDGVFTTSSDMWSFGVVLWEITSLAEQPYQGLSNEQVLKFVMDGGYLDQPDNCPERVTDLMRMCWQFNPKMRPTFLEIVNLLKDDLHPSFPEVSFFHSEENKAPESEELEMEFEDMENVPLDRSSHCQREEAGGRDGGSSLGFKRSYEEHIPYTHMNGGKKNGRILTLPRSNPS

Row | EC50 ([1]; 0% HSA) [nM] | Relative HI activity ([1]; 0% HSA) [%] | EC50 ([1]; 1.5% HSA) [nM] | Substance | blood glucose [2, 7] | blood glucose ([2]; 0.25 h after single S.C.) | blood glucose ([2]; 0.5 h after single S.C.) | blood glucose compared with the control group [2] | blood glucose ([2]; 1 h after single S.C.) | blood glucose ([2]; 2 h after single S.C.) | blood glucose ([2]; 4 h after single S.C.) | blood glucose ([2]; 6 h after single S.C.) | blood glucose ([2]; 8 h after single S.C.) | blood glucose ([2]; 10 h after single S.C.) | blood glucose ([2]; 24 h after single S.C.) | blood glucose ([2]; 48 h after single S.C.) | blood glucose ([2]; 72 h after single S.C.) | blood glucose ([2]; 96 h after single S.C.) | effective blood glucose control time ([2]; single S.C.) [h] | time after administration at which blood glucose reached the lowest level ([2]; single S.C.) [h] | time after administration at which blood glucose returned to normal ([2]; single S.C.) [h] | also measured
1 | 230 | 0.54 | 5020 | A14E, B16E, B25H, B29K (N^ε-eicosanedioyl-gGlu-2xOEG), DesB30 human insulin analog [Insulin-a1, reference compound] | 7.8 ± 1.1 | 8.8 ± 1.4 | 6.6 ± 0.7 | decreased significantly | 5.6 ± 0.7 | 4.4 ± 0.7 | 3.6 ± 0.7 | 3.8 ± 0.4 | 3.6 ± 0.7 | 3.4 ± 0.7 | 2.9 ± 0.7 | 4.9 ± 1.5 | 7.3 ± 1.3 | 7.8 ± 0.6 | 72 | 24 | 48 | Relative 0% HSA activity [1]: 4.58%; Relative HI activity ([1]; 1.5% HSA): 0.05%; time after administration at which blood glucose reached the lowest level ([3]; 1400 nmol/Kg S.C., Insulin-a1 each administration, Insulin-a3 first and second administrations): 24 h; time after administration at which blood glucose reached the normal level ([3]; 1400 nmol/Kg S.C., after each administration): 72 h; random blood glucose ([3]; Day 0 (1st administration)): 33.3 ± 0.1; random blood glucose ([3]; Day 1): 22.5 ± 9.6; random blood glucose ([3]; Day 4 (2nd administration)): 31.1 ± 2.3; random blood glucose ([3]; Day 5): 15.6 ± 6.6; random blood glucose ([3]; Day 9 (3rd administration)): 28.4 ± 4.9; random blood glucose ([3]; Day 10): 12.2 ± 7.9; random blood glucose ([3]; Day 14 (4th administration)): 28.4 ± 5.9; random blood glucose ([3]; Day 18): 26.2 ± 5.7; time the effective glucose control effect can be maintained ([3]; repeated administration, C57BL6 mice modeled by STZ): 3 days/time; AUClast [4]: 7550 ng·h/mL; T1/2 [4]: 15.3 ± 4.8 h; AUClast [5]: 10300 ng·h/mL; MRTINF_obs [5]: 34.1 h; T1/2 [5]: 21 h; AUClast [6]: 10000 ng·h/mL; T1/2 [6]: 14.3 h
2 |  |  |  | A14E, B16E, B25H, B29K(N(ε)-COOH(CH2)16CO-L-Lys-CO(CH2)2CO—(OEG)2), desB30 human insulin analog [Insulin-a4] | 8.0 ± 1.3 | 9.0 ± 1.9 | 6.2 ± 1.6 | decreased significantly | 5.0 ± 0.5 | 4.8 ± 0.5 | 3.9 ± 0.5 | 3.8 ± 1.1 | 3.2 ± 0.6 | 3.0 ± 0.6 | 5.3 ± 1.8 | 8.7 ± 0.9 | 8.0 ± 0.9 | 7.9 ± 1.1 | 48 | 10 | 48 | 
3 | 4.55 | 27.07 | 20.6 | insulin degludec [reference compound] | 7.8 ± 0.8 | 6.5 ± 1.1 | 5.0 ± 0.4 | decreased significantly | 4.7 ± 1.1 | 4.4 ± 1.3 | 5.4 ± 0.6 | 5.4 ± 1.2 | 5.8 ± 0.8 | 5.7 ± 0.9 | 8.3 ± 0.9 | 8.0 ± 0.3 | 8.0 ± 0.8 | 7.9 ± 0.3 | 24 | 2 | 24 | Relative 0% HSA activity [1]: 22.10%; Relative HI activity ([1]; 1.5% HSA): 12.59%

Reference: patent publication US20240374692A1, “A NOVEL ACYLATED INSULIN ANALOG” (SUNSHINE LAKE PHARMA CO., LTD., priority 2021, published 2024)
